Data: BindingDB's records for patent US11718589 (Case Western Reserve University, 2023)

molecular target: T1, 15-hydroxyprostaglandin dehydrogenase [NAD(+)] (Homo sapiens, UniProt P15428); test: In Vitro Assay
T1 sequence (P15428 whole entry): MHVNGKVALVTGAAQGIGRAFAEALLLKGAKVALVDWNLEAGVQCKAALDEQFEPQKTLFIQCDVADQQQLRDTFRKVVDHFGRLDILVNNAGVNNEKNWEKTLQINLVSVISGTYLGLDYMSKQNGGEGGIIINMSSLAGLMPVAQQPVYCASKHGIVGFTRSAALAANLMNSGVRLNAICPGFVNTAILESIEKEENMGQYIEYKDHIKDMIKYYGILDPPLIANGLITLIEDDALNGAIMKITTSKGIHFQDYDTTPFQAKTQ

SMILES	IC50
COc1ccc(-c2cc(C(F)(F)F)n3nc(C(=O)NCCO)cc3n2)cc1 [US11718589, Compound 12a]	> 2500 nM
CCCC[S+]([O-])c1cc2nc(-c3ccc(OC)cc3)cc(-c3ccc(F)cc3)n2n1 (stereo unspecified) [US11718589, Compound 6a]	59 nM
CCCC[S+]([O-])c1cc2nc(-c3ccc(OC)cc3)cc(-c3ccccc3)n2n1 (stereo unspecified) [US11718589, Compound 5a]	39 nM
CCNC(=O)c1cc2nc(-c3ccc(OC)cc3)cc(C(F)(F)F)n2n1 [US11718589, Compound 7a]	> 2500 nM
CCCC[S+]([O-])c1cc2nc(-c3ccc(OC)cc3)cc(C(F)(F)F)n2n1 (stereo unspecified) [US11718589, Compound 3a]	35.5 nM
CCCCS(=O)(=O)c1cc2nc(-c3ccc(OC)cc3)cc(C(F)(F)F)n2n1 [US11718589, Compound 4a]	> 2500 nM
